According to article PMC8615997, “The Pseudo-Symmetric N-benzyl Hydroxyethylamine Core in a New Series of Heteroarylcarboxyamide HIV-1 Pr Inhibitors: Synthesis, Molecular Modeling and Biological Evaluation” (Biomolecules, 2021):

Target: T1, recombinant wild-type HIV-1 PR (Human immunodeficiency virus type 1 group M subtype B, UniProt P04585)
T1 construct: recombinant wild-type HIV-1 PR from Bachem; purchased Bachem
Experiment: In vitro fluorometric HIV-1 protease inhibition assay (fluorogenic substrate Abz-Thr-Ile-Nle-Phe(p-NO2)-Gln-Arg-NH2, pH 5.5)
Type: biochemical
Conditions: for remaining activity at 0.0005 µM: read-out: residual activity at the 0.5 nM inhibitor
Experimental: IC50 values were determined at pH 5.5 using recombinant wild-type HIV-1 PR from Bachem and the fluorogenic substrate Abz-Thr-Ile-Nle-Phe(p-NO2)-Gln-Arg-NH2 (Abz-NF⁄-6; Bachem AG, Bubendorf, CH). […] The assay was performed as follows: Dilution Buffer: 100 mM MES buffer, pH 5.5, containing 400 mM NaCl, 1 mM EDTA, 1 mM DTT and 1 mg/mL BSA. Solution A: 10 μL of a substrate stock solution in DMSO (10 mg/ml, 10.6 mM) were diluted in 1.99 ml of dilution buffer to a final concentration of […]. Solution B: 10 μL of a protease stock solution (0.4 mg/mL) in 10 mM sodium phosphate buffer, pH 6.5, containing 1 mM EDTA, 10% glycerol, 0.05% mercaptoethanol, 50 mM NaCl, were diluted 100 times with the dilution buffer, pH 5.5, to a final concentration of 0.004 mg/ml.
Assay: 114 μL of solution A, 11 μL of solution B and 75 μL of the dilution buffer were pre-incubated in a cuvette at 25 °C, and the fluorescence was recorded at 325 nm excitation and 420 nm emission for 10 min. A total of 2 μL of the inhibitor in DMSO was then added, and the fluorescence was recorded for a further 10 min. […] IC50 was obtained by measuring the relative residual enzyme activity (ratio of the increase of fluorescence velocities before and after the addition of inhibitor) and by fitting the residual activity vs. inhibitor concentration semilog plots to a tetraparametric logistic function (Sigma plot 2001, SPSS Inc., Chicago, IL, USA). All the measures were triplicated.
IC50 values were obtained on recombinant wild-type HIV protease by measuring the initial rates of hydrolysis of the fluorogenic substrate Abz-Thr-Ile-Nle-Phe(NO2)-Gln-Arg (Table 1). The initial rates of the enzyme-catalyzed reactions were measured at different inhibitors concentrations, while the reference rates for the not-inhibited reactions were measured each time before the addition of the inhibitors. IC50 was obtained by measuring the relative residual enzyme activity (ratio of the increase of fluorescence velocities before and after the addition of inhibitor) and by fitting the residual activity vs. inhibitor concentration semilog plots to a tetraparametric logistic function.

Structure (SMILES) | IC50 [nM] | remaining activity at 0.0005 µM [%]
O=C(N[C@@H](Cc1ccccc1)[C@H](O)CN(Cc1ccccc1)S(=O)(=O)c1ccc([N+](=O)[O-])cc1)c1ccc2sccc2c1 [Compound 7a, N-((2S,3R)-3-hydroxy-4-(N-benzyl-4-nitrophenylsulfonamido)-1-phenylbutan-2-yl)benzo[b]thiophene-5-carboxamide] | 4.2 | 
COc1ccc(S(=O)(=O)N(Cc2ccccc2)C[C@@H](O)[C@H](Cc2ccccc2)NC(=O)c2ccc3sccc3c2)cc1 [Compound 7b, N-((2S,3R)-3-hydroxy-4-(N-benzyl-4-methoxyphenylsulfonamido)-1-phenylbutan-2-yl)benzo[b]thiophene-5-carboxamide] | 2.3 | 
COc1ccc(S(=O)(=O)N(Cc2ccccc2)C[C@@H](O)[C@H](Cc2ccccc2)NC(=O)c2ccc3sccc3c2)cc1OC [Compound 7c, N-((2S,3R)-3-hydroxy-4-(N-benzyl-3,4-dimethoxyphenylsulfonamido)-1-phenylbutan-2-yl)benzo[b]thiophene-5-carboxamide] | 6.2 | 
O=C(N[C@@H](Cc1ccccc1)[C@H](O)CN(Cc1ccccc1)S(=O)(=O)c1ccc([N+](=O)[O-])cc1)c1ccc2occc2c1 [Compound 8a, N-((2S,3R)-3-hydroxy-4-(N-benzyl-4-nitrophenylsulfonamido)-1-phenylbutan-2-yl)benzofuran-5-carboxamide] | 47 | 
COc1ccc(S(=O)(=O)N(Cc2ccccc2)C[C@@H](O)[C@H](Cc2ccccc2)NC(=O)c2ccc3occc3c2)cc1 [Compound 8b, N-((2S,3R)-3-hydroxy-4-(N-benzyl-4-methoxyphenylsulfonamido)-1-phenylbutan-2-yl)benzofuran-5-carboxamide] | 9.6 | 
COc1ccc(S(=O)(=O)N(Cc2ccccc2)C[C@@H](O)[C@H](Cc2ccccc2)NC(=O)c2ccc3occc3c2)cc1OC [Compound 8c, N-((2S,3R)-3-hydroxy-4-(N-benzyl-3,4-dimethoxyphenylsulfonamido)-1-phenylbutan-2-yl)benzofuran-5-carboxamide] | 82 | 
O=C(N[C@@H](Cc1ccccc1)[C@H](O)CN(Cc1ccccc1)S(=O)(=O)c1ccc([N+](=O)[O-])cc1)c1ccc2[nH]ccc2c1 [Compound 9a, N-((2S,3R)-3-hydroxy-4-(N-benzyl-4-nitrophenylsulfonamido)-1-phenylbutan-2-yl)1H-indol-5-carboxamide] |  | 27.7
COc1ccc(S(=O)(=O)N(Cc2ccccc2)C[C@@H](O)[C@H](Cc2ccccc2)NC(=O)c2ccc3[nH]ccc3c2)cc1 [Compound 9b, N-((2S,3R)-3-hydroxy-4-(N-benzyl-4-methoxyphenylsulfonamido)-1-phenylbutan-2-yl)1H-indol-5-carboxamide] |  | 36.3
COc1ccc(S(=O)(=O)N(Cc2ccccc2)C[C@@H](O)[C@H](Cc2ccccc2)NC(=O)c2ccc3[nH]ccc3c2)cc1OC [Compound 9c, N-((2S,3R)-3-hydroxy-4-(N-benzyl-3,4-dimethoxyphenylsulfonamido)-1-phenylbutan-2-yl)1H-indol-5-carboxamide] |  | 10.2
